From EP4151202A1, “COMPOSITION FOR PREVENTING AND/OR TREATING WHITE STRETCH MARKS” (LSI Silderma Ltd, priority 2021, dated 2023) come the findings set out here.

For the series, the system named is vergetures blanches. As to the kind of experiment: Tolerance of cutaneous application (side effects) on skin with white stretch marks. It is filed as in vivo, individus. Conditions: as active ingredient together with the excipients of formule 1. The text has this: Pour évaluer l'efficacité et la tolérance d'application de la composition de l'invention, 27 individus ont appliqué, matin et soir, pendant 90 jours, sur une zone de peau nettoyée avec vergetures blanches existantes, soit une composition selon l'invention, soit une composition « placebo ».
Chez chaque individu, la composition « placebo » a été appliquée sur une première moitié de la zone constituée par les vergetures blanches, et la composition de l'invention sur l'autre moitié de ladite zone. L'application cutanée sur les différentes zones de vergetures blanches a été accompagnée d'un léger massage pour favoriser la pénétration dans la peau de chacune des deux compositions. En moyenne, il a été appliqué entre 0,02 et 0,04 mL de composition / cm^2 de peau avec vergetures blanches.
On entend par « effet secondaire » des brûlures, irritations, démangeaisons ou tout autre type de modification de la peau au niveau de la surface d'application de la composition de l'invention. Ainsi, le palmitoyl-tripeptide-5, en tant que principe actif dermatologique, en association avec les excipients, est bien toléré en application cutanée.

With palmitoyl-tripeptide-5, the “tolérance en application cutanée” value is “bien toléré”.
